Results on eleven compounds are retold here after ChEMBL document CHEMBL1201862, “PubChem BioAssay data set” (2004).

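Growth conditions: 96-well plates. Treatment: test compound, 48 hours, 5 concentrations. Analysis: linear interpolation between bracketing concentrations; unreached endpoints set to highest concentration. Abbreviation: GI50, concentration required for 50% inhibition of growth.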 The source made the active and inactive calls. Rule as the data show it: active = GI50 up to about 1.1 µM and inactive = higher.

Some test systems named below: KM12; NCI-H226; A549; PC-3; OVCAR-4; OVCAR-3; NCI/ADR-RES; NCI-H23; UO-31; HCC 2998; HCT-15; CAKI-1; NCI-H460; ACHN; A498; OVCAR-5; U-251; HCT-116; Malme-3M; UACC-257.
Holding throughout (test): growth of human tumour cells (NCI), 48 h

Consider `CC1C2=C(O)CC(C)(C)CC2=NC2=C1C(=O)CC(C)(C)C2` (centres undefined), for which the GI50 in the experiment with KM12, with NCI-H226, in the experiment with A549, with PC-3, in the experiment with OVCAR-4 and in the experiment on OVCAR-3 was > 100 µM (inactive) in each case. Further, the GI50 with NCI/ADR-RES is > 100 µM (inactive); in the experiment on NCI-H23, > 100 µM (inactive); with UO-31, > 100 µM (inactive); in the experiment on HCC 2998 it was > 100 µM (inactive); in the experiment with HCT-15, over 100 µM; in the experiment on CAKI-1, > 100 µM (inactive). Besides, the GI50 in the experiment with NCI-H460, in the experiment with ACHN, with A498, with OVCAR-5 and in the experiment with U-251 was > 100 µM (inactive) throughout.

`CC[N+]1(C)CCC(O)(/C=C/c2ccc(Cl)cc2)C(C(=O)/C=C/c2ccc(Cl)cc2)C1` (centres undefined): the GI50 in the experiment with KM12 was 2.9 µM (inactive); in the experiment on HCT-116 it was 3.48 µM (inactive); in the experiment with A549 it was 13.9 µM (inactive); in the experiment with PC-3, 10.7 µM (inactive); with OVCAR-4, 28.4 µM (inactive); in the experiment with OVCAR-3, 11.5 µM (inactive). For the same compound, the GI50 with NCI/ADR-RES is 9.64 µM (inactive); in the experiment on NCI-H23 it was 9.89 µM (inactive); with UO-31 it was 6.58 µM (inactive); in the experiment on HCC 2998 it was 17.5 µM (inactive); in the experiment on HCT-15 it was 4.56 µM; in the experiment with CAKI-1 it was 1.9 µM (inactive). Moreover, the GI50 in the experiment with NCI-H460 was 4.48 µM (inactive); in the experiment with ACHN, 3.6 µM (inactive); in the experiment with Malme-3M it was 6.62 µM (inactive); in the experiment with A498, 16.4 µM (inactive); in the experiment on OVCAR-5, 17.3 µM (inactive); with U-251, 3.81 µM (inactive). The GI50 in the experiment on UACC-257 is 14.5 µM (inactive).

Regarding `O=C1/C(=C/c2ccccc2S)N=C(c2ccccc2)N1c1nc2ccc(Sc3ccccc3)cc2[nH]1`, the GI50 is 27.6 µM (inactive) in the experiment with KM12; 33.4 µM (inactive) with HCT-116; 36.6 µM (inactive) in the experiment with A549; 32.2 µM (inactive) in the experiment with PC-3; 35.2 µM (inactive) in the experiment with OVCAR-4; 21.6 µM (inactive) with OVCAR-3. In addition, the GI50 in the experiment on NCI/ADR-RES was 22 µM (inactive); with NCI-H23, 37 µM (inactive); in the experiment with UO-31 it was 36.3 µM (inactive); in the experiment on HCC 2998, 22.7 µM (inactive); in the experiment on HCT-15, 31.9 µM; in the experiment on CAKI-1, 34.1 µM (inactive). The GI50 is 21.9 µM (inactive) with NCI-H460; 50.5 µM (inactive) in the experiment on ACHN; 37.8 µM (inactive) in the experiment on Malme-3M; 26.2 µM (inactive) in the experiment on A498; 32.4 µM (inactive) in the experiment on OVCAR-5; 21.3 µM (inactive) in the experiment with U-251. For the same compound, the GI50 in the experiment on UACC-257 was 23.6 µM (inactive).

For the compound `Oc1ccccc1CNCc1nc2ccccc2[nH]1`, the GI50 was 89.5 µM (inactive) with KM12; 37 µM (inactive) in the experiment with HCT-116; 20.9 µM (inactive) with NCI-H226; > 100 µM (inactive) in the experiment on A549; 71.9 µM (inactive) in the experiment with PC-3; > 100 µM (inactive) in the experiment with OVCAR-4. Besides, the GI50 is 33.7 µM (inactive) in the experiment on OVCAR-3; 15.9 µM (inactive) in the experiment on NCI/ADR-RES; > 100 µM (inactive) with NCI-H23; 11.2 µM (inactive) with UO-31; > 100 µM (inactive) in the experiment on HCC 2998; 3.01 µM in the experiment on HCT-15. Besides, the GI50 was 69.3 µM (inactive) in the experiment on CAKI-1; 12.9 µM (inactive) with ACHN; > 100 µM (inactive) in the experiment on A498; > 100 µM (inactive) in the experiment on OVCAR-5; 41.5 µM (inactive) in the experiment with U-251; > 100 µM (inactive) with UACC-257.

Turning to `CCn1c(-c2ccc(/N=N/Nc3ccc(-c4n[nH]c(=S)n4CC)cc3)cc2)n[nH]c1=S`, the GI50 was 2.44 µM (inactive) in the experiment on KM12; 3.55 µM (inactive) in the experiment with HCT-116; 2.24 µM (inactive) in the experiment on NCI-H226; 3.56 µM (inactive) in the experiment on A549; 2.75 µM (inactive) in the experiment on PC-3; 1.97 µM (inactive) in the experiment with OVCAR-4. In addition, the GI50 was 2.26 µM (inactive) in the experiment with OVCAR-3; 28.8 µM (inactive) with NCI/ADR-RES; 2.53 µM (inactive) in the experiment on NCI-H23; 2.33 µM (inactive) in the experiment with UO-31; 3.03 µM in the experiment with HCT-15; 2.7 µM (inactive) in the experiment on CAKI-1. For the same compound, the GI50 in the experiment on ACHN is 2.36 µM (inactive); in the experiment with Malme-3M, 2.57 µM (inactive); with A498, 3.3 µM (inactive); in the experiment with U-251 it was 2.57 µM (inactive); with UACC-257 it was 3.15 µM (inactive).

With `CC(=O)c1cc(C)n2c1CS[C@@H]2c1ccccc1`, the GI50 is 54.6 µM (inactive) in the experiment with KM12; 30.8 µM (inactive) in the experiment on HCT-116; 41 µM (inactive) in the experiment with NCI-H226; 53 µM (inactive) in the experiment with A549; 33.3 µM (inactive) with PC-3; 59.7 µM (inactive) with OVCAR-4. For the same compound, the GI50 in the experiment on OVCAR-3 was 39.6 µM (inactive); in the experiment on NCI/ADR-RES it was 50.1 µM (inactive); in the experiment on NCI-H23 it was 65.6 µM (inactive); with UO-31, 64.3 µM (inactive); in the experiment on HCT-15, 31.3 µM; with CAKI-1, 70.5 µM (inactive). The GI50 in the experiment with ACHN was 68.2 µM (inactive); in the experiment on Malme-3M it was > 100 µM (inactive); in the experiment on A498, > 100 µM (inactive); in the experiment with OVCAR-5 it was > 100 µM (inactive); in the experiment with U-251, 28.4 µM (inactive); in the experiment on UACC-257, > 100 µM (inactive).

On to `O=c1oc2ncccc2n1Cc1ccc([N+](=O)[O-])cc1`, for which the GI50 in the experiment with KM12 was > 100 µM (inactive); with HCT-116, 68.2 µM (inactive); with NCI-H226 it was > 100 µM (inactive); with A549 it was > 100 µM (inactive); with PC-3, > 100 µM (inactive); with OVCAR-4, > 100 µM (inactive). Besides, the GI50 in the experiment on OVCAR-3 is > 100 µM (inactive); with NCI/ADR-RES, > 100 µM (inactive); in the experiment with NCI-H23, > 100 µM (inactive); with UO-31, 26.5 µM (inactive); in the experiment on HCT-15, over 100 µM; with CAKI-1, > 100 µM (inactive). Also, the GI50 in the experiment on NCI-H460, in the experiment on ACHN, in the experiment on Malme-3M, with A498, with OVCAR-5 and in the experiment on U-251 was > 100 µM (inactive) each time. In addition, the GI50 in the experiment with UACC-257 was > 100 µM (inactive).

In the case of `COc1cccc([C@@H]2C/C(=N\NC(=O)C(=O)N[C@@H](C)c3ccccc3)c3cc4c(cc3N2)OCO4)c1`, the GI50 was 6.89 µM (inactive) with KM12; 22.4 µM (inactive) in the experiment on HCT-116; 10.5 µM (inactive) with NCI-H226; 43.9 µM (inactive) with A549; 98.6 µM (inactive) in the experiment on PC-3; 74 µM (inactive) with OVCAR-4. In addition, the GI50 in the experiment on OVCAR-3 was 30.1 µM (inactive); with NCI/ADR-RES, 13.9 µM (inactive); with UO-31 it was > 100 µM (inactive); with HCC 2998 it was 50.9 µM (inactive); in the experiment on HCT-15, 27.4 µM; with CAKI-1, 48.1 µM (inactive). The GI50 was > 100 µM (inactive) with ACHN; 47.4 µM (inactive) in the experiment on A498; > 100 µM (inactive) with OVCAR-5; > 100 µM (inactive) in the experiment on U-251; 15.8 µM (inactive) in the experiment with UACC-257.

Take `CC(C)(C)OC(=O)N[C@@H](Cc1ccccc1)C(=O)N1CC[C@@H](C(=O)N2[C@H]3CC4CC[C@@]3(CS2(=O)=O)C4(C)C)N1`: the GI50 in the experiment on KM12 was 79.1 µM (inactive); with HCT-116, 47.3 µM (inactive); in the experiment on NCI-H226, > 100 µM (inactive); with A549, 43.8 µM (inactive); with PC-3, 45.7 µM (inactive); in the experiment with OVCAR-4, 68.1 µM (inactive). Further, the GI50 was 51.6 µM (inactive) in the experiment on OVCAR-3; 62.5 µM (inactive) in the experiment with NCI/ADR-RES; 50.6 µM (inactive) with NCI-H23; 79.3 µM (inactive) in the experiment on HCC 2998; 56.9 µM in the experiment with HCT-15; > 100 µM (inactive) in the experiment with CAKI-1. In addition, the GI50 is 39.4 µM (inactive) with NCI-H460; 64.9 µM (inactive) with ACHN; > 100 µM (inactive) in the experiment on A498; > 100 µM (inactive) in the experiment with OVCAR-5; > 100 µM (inactive) in the experiment with U-251; > 100 µM (inactive) in the experiment on UACC-257.

As for `CCSC12OC3(CCCCCN3C1=O)C1C(=O)N(c3ccccc3)C(=O)C12` (centres undefined), the GI50 with KM12, in the experiment on HCT-116, with NCI-H226, in the experiment on A549, in the experiment on PC-3 and with OVCAR-4 was > 100 µM (inactive) in each case. Besides, the GI50 was > 100 µM (inactive) with OVCAR-3; > 100 µM (inactive) in the experiment on NCI/ADR-RES; > 100 µM (inactive) with NCI-H23; > 100 µM (inactive) in the experiment with UO-31; over 100 µM in the experiment with HCT-15; > 100 µM (inactive) in the experiment on CAKI-1. The GI50 in the experiment with NCI-H460, with ACHN, in the experiment on Malme-3M, in the experiment with A498, in the experiment with OVCAR-5 and in the experiment on U-251 was > 100 µM (inactive) in each case. Also, the GI50 with UACC-257 was > 100 µM (inactive).

`COc1ccccc1N1CCN(Cn2c(=O)oc3cccnc32)CC1`: the GI50 is 56.4 µM (inactive) in the experiment with HCT-116; > 100 µM (inactive) in the experiment on A549; > 100 µM (inactive) with PC-3; > 100 µM (inactive) in the experiment on OVCAR-4; > 100 µM (inactive) in the experiment with OVCAR-3; > 100 µM (inactive) in the experiment on NCI/ADR-RES. The GI50 was > 100 µM (inactive) with NCI-H23; > 100 µM (inactive) in the experiment with UO-31; > 100 µM (inactive) with HCC 2998; over 100 µM with HCT-15; > 100 µM (inactive) in the experiment on CAKI-1; > 100 µM (inactive) with NCI-H460. Besides, the GI50 in the experiment on ACHN is > 100 µM (inactive); in the experiment on Malme-3M, > 100 µM (inactive); in the experiment on A498, > 100 µM (inactive); in the experiment on OVCAR-5, > 100 µM (inactive); in the experiment with U-251 it was 90.2 µM (inactive); in the experiment on UACC-257, > 100 µM (inactive).
